Source: PubChem BioAssay (NCI)
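48-hour exposure; five concentrations; linearly interpolated endpoints. GI50: concentration for 50% inhibition of growth. TGI denotes the concentration required for complete inhibition of growth.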

Tests used:
Test in all cases: NCI tumour cell line growth inhibition, 48 h
[1] = tested on: 786-0 renal
[2] = tested on: A498 renal
[3] = tested on: A549 NSCLC
[4] = tested on: ACHN renal
[5] = tested on: BT-549 breast
[6] = tested on: CAKI-1 renal
[7] = tested on: CCRF-CEM leukemia
[8] = tested on: COLO 205 colon
[9] = tested on: DU-145 prostate
[10] = tested on: EKVX NSCLC
[11] = tested on: HCC-2998 colon
[12] = tested on: HCT-116 colon
[13] = tested on: HCT-15 colon
[14] = tested on: HL-60(TB) leukemia
[15] = tested on: HOP-62 NSCLC
[16] = tested on: HOP-92 NSCLC
[17] = tested on: HS 578T breast
[18] = tested on: HT29 colon
[19] = tested on: IGROV1 ovarian
[20] = tested on: K-562 leukemia
[21] = tested on: KM12 colon
[22] = tested on: LOX IMVI melanoma
[23] = tested on: M14 melanoma
[24] = tested on: MALME-3M melanoma
[25] = tested on: MCF7 breast
[26] = tested on: MDA-MB-231 breast
[27] = tested on: MDA-MB-435
[28] = tested on: MDA-MB-468 breast
[29] = tested on: MOLT-4 leukemia
[30] = tested on: NCI-H226 lung
[31] = tested on: NCI-H23 lung
[32] = tested on: NCI-H460 lung
[33] = tested on: NCI-H522 lung
[34] = tested on: OVCAR-3 ovarian
[35] = tested on: OVCAR-4 ovarian
[36] = tested on: OVCAR-5 ovarian
[37] = tested on: OVCAR-8 ovarian
[38] = tested on: PC-3 prostate
[39] = tested on: RPMI-8226 leukemia
[40] = tested on: RXF 393 renal
[41] = tested on: SF-268 CNS
[42] = tested on: SF-295 CNS
[43] = tested on: SF-539 CNS
[44] = tested on: SK-MEL-2 melanoma
[45] = tested on: SK-MEL-28 melanoma
[46] = tested on: SK-MEL-5 melanoma
[47] = tested on: SK-OV-3 ovarian
[48] = tested on: SN12C renal
[49] = tested on: SNB-19 CNS
[50] = tested on: SNB-75 CNS
[51] = tested on: SR leukemia
[52] = tested on: SW-620 colon
[53] = tested on: T-47D breast
[54] = tested on: TK-10 renal
[55] = tested on: U251 CNS
[56] = tested on: UACC-257 melanoma
[57] = tested on: UACC-62 melanoma
[58] = tested on: UO-31 renal

## CC(=O)Oc1ccccc1C(=O)NC([Se])=NC1CCCCC1
[1]
  GI50: 1.72 µM
  TGI: 3.28 µM
[2]
  GI50: 2.41 µM
  TGI: 7.58 µM
[3]
  GI50: 3.3 µM
  TGI: 23 µM
[4]
  GI50: 9.75 µM
  TGI: 25.8 µM
[5]
  GI50: 3.3 µM
  TGI: 11.3 µM
[6]
  GI50: 3.07 µM
  TGI: 11.5 µM
[7]
  GI50: 5.25 µM
  TGI: 29.4 µM
[8]
  GI50: 17.1 µM
  TGI: 31.4 µM
[9]
  GI50: 3.22 µM
  TGI: 10.2 µM
[10]
  GI50: 2.12 µM
  TGI: 4.93 µM
[11]
  GI50: 2.28 µM
  TGI: 5.11 µM
[12]
  GI50: 3.18 µM
  TGI: 12.6 µM
[13]
  GI50: 3.43 µM
  TGI: 11.6 µM
[14]
  GI50: 18.2 µM
  TGI: > 100 µM
[15]
  GI50: 3.35 µM
  TGI: 13.4 µM
[16]
  GI50: 2.34 µM
  TGI: 6.52 µM
[17]
  GI50: 2.67 µM
  TGI: 9.16 µM
[18]
  GI50: 4.87 µM
  TGI: 28.7 µM
[19]
  GI50: 2.02 µM
  TGI: 3.98 µM
[20]
  GI50: 26.1 µM
  TGI: > 100 µM
[21]
  GI50: 3.42 µM
  TGI: 11.7 µM
[22]
  GI50: 1.96 µM
  TGI: 4.26 µM
[23]
  GI50: 2.43 µM
  TGI: 5.7 µM
[24]
  GI50: 16.7 µM
  TGI: 30.3 µM
[25]
  GI50: 2.24 µM
  TGI: 6.8 µM
[26]
  GI50: 1.96 µM
  TGI: 3.77 µM
[27]
  GI50: 7.88 µM
  TGI: 20.9 µM
[28]
  GI50: 7.37 µM
  TGI: 20.7 µM
[29]
  GI50: 10.8 µM
  TGI: 98.8 µM
[30]
  GI50: 2.56 µM
  TGI: 9.46 µM
[31]
  GI50: 2.24 µM
  TGI: 5.35 µM
[32]
  GI50: 2.62 µM
  TGI: 7.24 µM
[33]
  GI50: 15.6 µM
  TGI: 30 µM
[34]
  GI50: 12.4 µM
  TGI: 25.9 µM
[35]
  GI50: 4.35 µM
  TGI: 16.9 µM
[36]
  GI50: 2.07 µM
  TGI: 5.15 µM
[37]
  GI50: 1.95 µM
  TGI: 3.73 µM
[38]
  GI50: 2.63 µM
  TGI: 8.24 µM
[39]
  GI50: 2.63 µM
  TGI: 7.61 µM
[40]
  GI50: 1.65 µM
  TGI: 3.34 µM
[41]
  GI50: 13.7 µM
  TGI: 31.2 µM
[42]
  GI50: 2.24 µM
  TGI: 5.08 µM
[43]
  GI50: 1.84 µM
  TGI: 3.46 µM
[44]
  GI50: 2.35 µM
  TGI: 5.29 µM
[45]
  GI50: 3.59 µM
  TGI: 13.1 µM
[46]
  GI50: 1.63 µM
  TGI: 3.07 µM
[47]
  GI50: 2.84 µM
  TGI: 7.5 µM
[48]
  GI50: 1.99 µM
  TGI: 4.41 µM
[49]
  GI50: 3.28 µM
  TGI: 11.7 µM
[50]
  GI50: 1.71 µM
  TGI: 5.87 µM
[51]
  GI50: 3.11 µM
  TGI: 14.4 µM
[52]
  GI50: 10.2 µM
  TGI: 23.6 µM
[53]
  GI50: 12.5 µM
  TGI: 30.2 µM
[54]
  GI50: 12.1 µM
  TGI: 24.7 µM
[55]
  GI50: 2.35 µM
  TGI: 6.24 µM
[56]
  GI50: 2.93 µM
  TGI: 10.2 µM
[57]
  GI50: 1.79 µM
  TGI: 3.89 µM
[58]
  GI50: 1.62 µM
  TGI: 3.03 µM
